Data on 17 compounds can be found in PMC8998978, “Toward a Treatment of Cancer: Design and In Vitro/In Vivo Evaluation of Uncharged Pyrazoline Derivatives as a Series of Novel SHP2 Inhibitors” (International Journal of Molecular Sciences, 2022).

Data set [1] concerns the target T1, recombinant human SHP2 protein (Homo sapiens, UniProt Q06124).
T1 sequence (Q06124 1-593): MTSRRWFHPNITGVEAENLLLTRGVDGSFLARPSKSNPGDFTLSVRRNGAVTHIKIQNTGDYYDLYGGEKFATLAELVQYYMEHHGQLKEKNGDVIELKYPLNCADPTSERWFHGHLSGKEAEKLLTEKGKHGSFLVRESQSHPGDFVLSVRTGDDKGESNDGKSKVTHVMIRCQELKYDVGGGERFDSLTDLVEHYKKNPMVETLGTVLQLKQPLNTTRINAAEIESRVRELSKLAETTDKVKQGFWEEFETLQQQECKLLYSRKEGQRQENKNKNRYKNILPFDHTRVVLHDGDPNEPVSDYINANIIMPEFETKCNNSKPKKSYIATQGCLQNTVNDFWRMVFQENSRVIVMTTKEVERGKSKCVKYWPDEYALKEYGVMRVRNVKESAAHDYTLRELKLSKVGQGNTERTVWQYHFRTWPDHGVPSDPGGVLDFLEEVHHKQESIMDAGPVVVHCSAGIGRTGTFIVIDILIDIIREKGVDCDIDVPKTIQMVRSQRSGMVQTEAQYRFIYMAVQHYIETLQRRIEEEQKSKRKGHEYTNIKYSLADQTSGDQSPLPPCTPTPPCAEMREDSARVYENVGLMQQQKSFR
Nature of the data set: SHP2 inhibition assay (pNPP substrate). In kind it is biochemical. As to conditions: pNPP 4 mM, SHP2 240 nM, 37 °C, 30 min; means ± SD. On the procedure:
pGEX-4T1 SHP2 WT (plasmid #8322) was purchased from Addgene. […] Then, 0.2 mM IPTG (Sangon Biotech, Shanghai, China) was added to induce the expression of protein at 30 °C for 4 h followed by centrifugation and cells collection. Cells were then broken by ultrasound in lysis buffer (20 mM Tris–HCl (pH 8.0), 100 mM KCl, 10% glycerol, 1 mM DTT, 0.5% Triton X-100) on ice. The supernatant was collected by centrifugation at 10,000× g for 15 min at 4 °C. The BeaverBeads GSH (Beaver Biosciences Inc., Guangzhou, China) washed by lysis buffer were incubated with the supernatant for 2 h at 4 °C. […] Then, the experiment was performed in a final volume of 100 μL containing 10 mM Tris–HCl (pH 7.5), 25 mM NaCl, 1 mM EDTA and 4 mM pNPP in a 96-well plate at 37 °C for 30 min. The amount of product p-nitrophenol was determined by the absorbance at 405 nm in a multimode reader (Berthold Technologies GmbH & Co.KG, Bad Wildbad, Baden Württemberg, Germany). The IC50 value was calculated by GraphPad Prism 7.0 software (GraphPad Inc, San Diego, CA, USA).

Data set [2] has as its system HCT116 cells xenograft. Nature of the data set: Anti-tumor activity in vivo, HCT116 xenograft model. More on the design: species or system BALB/c-nude mice. The following applies: 13 days. How it is done: Male BALB/c-nude mice (Jinan Pengyue Experimental Animal Breeding Co., Ltd., Jinan, China), 5 weeks of age, were used. The mice were housed in a specific pathogen-free room with temperature controlled (22 ± 2 °C), humidity (55 ± 10%) and a light/dark cycle of 12 h, providing sterile food and water. The HCT116 cells xenograft model was conducted, and 1 × 10^7 HCT116 cells were subcutaneously injected into the right armpit of mice. The tumor volume of mice was measured every three days to evaluate the tumor growth. When the tumor volume reached about 100 mm^3, the mice were randomly divided into four groups (n = 6), and treated with vehicle (0.5% CMC-Na solution) or 4o (25, 50 mg/kg) by gavage once a day for 13 consecutive days. A total of 25 mg/kg 5-FU was used as a positive control. The body weight of mice was measured every three days. The length (L) and width (W) of tumors were measured by electronic caliper every three days. The volume (V) was calculated as follows: V = (L × W^2)/2. When the tumor volume reached about 1000 mm^3, the tumors were excised. Immunohistochemical analysis were used to evaluate the related protein levels.

Data set [3] relates to SHP2. The following applies: cited from earlier work.

Take `CCOc1ccc(Oc2ccc(C3=NN(C=O)C(c4ccc(O)c(O)c4)C3)cc2)cc1` (stereo not drawn) [Compound 4a, 5-(3,4-dihydroxyphenyl)-3-(4-(4-ethoxyphenoxy)phenyl)-4,5-dihydro-1H-pyrazole-1-carbaldehyde]: the IC50 in data set [1] was found to be 13.3 ± 2.11 µM.
As for `CC(C)(C)c1ccc(Oc2ccc(C3=NN(C=O)C(c4ccc(O)c(O)c4)C3)cc2)cc1` (stereo not drawn) [Compound 4b, 3-(4-(4-(tert-butyl)phenoxy)phenyl)-5-(3,4-dihydroxyphenyl)-4,5-dihydro-1H-pyrazole-1-carbaldehyde], the IC50 in data set [1] stood at 13.7 ± 1.98 µM.
On to `CCC(=O)N1N=C(c2ccc(Oc3ccccc3)cc2)CC1c1ccc(O)c(O)c1` (stereo not drawn) [Compound 4c, 1-(5-(3,4-dihydroxyphenyl)-3-(4-phenoxyphenyl)-4,5-dihydro-1H-pyrazol-1-yl)propan-1-one], for which the IC50 in data set [1] stood at 34.2 ± 5.9 µM.
In the case of `CCCC(=O)N1N=C(c2ccc(Oc3ccccc3)cc2)CC1c1ccc(O)c(O)c1` (stereo not drawn) [Compound 4d, 1-(5-(3,4-dihydroxyphenyl)-3-(4-phenoxyphenyl)-4,5-dihydro-1H-pyrazol-1-yl)butan-1-one], in data set [1], the IC50 was 9.51 ± 2.01 µM.
For the compound `CCOc1ccc(Oc2ccc(C3=NN(C(N)=S)C(c4ccc(O)c(O)c4)C3)cc2)cc1` (stereo not drawn) [Compound 4e, 5-(3,4-dihydroxyphenyl)-3-(4-(4-ethoxyphenoxy)phenyl)-4,5-dihydro-1H-pyrazole-1-carbothioamide], in data set [1], the IC50 came out at 5.96 ± 0.92 µM.
Consider `COc1ccc(C2=NN(C(N)=S)C(c3ccc(O)c(O)c3)C2)cc1` (stereo not drawn) [Compound 4f, 5-(3,4-dihydroxyphenyl)-3-(4-methoxyphenyl)-4,5-dihydro-1H-pyrazole-1-carbothioamide], for which the IC50 in data set [1] turned out to be 13.2 ± 1.89 µM.
In the case of `NC(=S)N1N=C(c2ccc(Oc3ccccc3)cc2)CC1c1ccc(O)c(O)c1` (stereo not drawn) [Compound 4g, 5-(3,4-dihydroxyphenyl)-3-(4-phenoxyphenyl)-4,5-dihydro-1H-pyrazole-1-carbothioamide], the half-maximal inhibitory concentration (IC50) in data set [1] stood at 5.97 ± 0.88 µM.
In the case of `CC(C)(C)c1ccc(Oc2ccc(C3=NN(C(N)=S)C(c4ccc(O)c(O)c4)C3)cc2)cc1` (stereo not drawn) [Compound 4h, 3-(4-(4-(tert-butyl)phenoxy)phenyl)-5-(3,4-dihydroxyphenyl)-4,5-dihydro-1H-pyrazole-1-carbothioamide], the IC50 in data set [1] worked out at 8.44 ± 2.03 µM.
Still for that read-out and setting: the result for `NC(=S)N1N=C(c2ccc(Br)cc2)CC1c1ccc(O)c(O)c1` (stereo not drawn) [Compound 4i, 3-(4-bromophenyl)-5-(3,4-dihydroxyphenyl)-4,5-dihydro-1H-pyrazole-1-carbothioamide] reads 20.4 ± 2.45 µM; that for `COc1ccc(C2=NN(C3=NC(=O)CS3)C(c3ccc(O)c(O)c3)C2)cc1` (stereo not drawn) [Compound 4j, 2-(5-(3,4-dihydroxyphenyl)-3-(4-methoxyphenyl)-4,5-dihydro-1H-pyrazol-1-yl)thiazol-4(5H)-one], 11.4 ± 1.56 µM.
Same read-out and setting: the same measure for `O=C1CSC(N2N=C(c3ccc(Oc4ccccc4)cc3)CC2c2ccc(O)c(O)c2)=N1` (stereo not drawn) [Compound 4k, 2-(5-(3,4-dihydroxyphenyl)-3-(4-phenoxyphenyl)-4,5-dihydro-1H-pyrazol-1-yl)thiazol-4(5H)-one]: 4.98 ± 0.77 µM; for `CCOc1ccc(Oc2ccc(C3=NN(C4=NC(=O)CS4)C(c4ccc(O)c(O)c4)C3)cc2)cc1` (stereo not drawn) [Compound 4l, 2-(5-(3,4-dihydroxyphenyl)-3-(4-(4-ethoxyphenoxy)phenyl)-4,5-dihydro-1H-pyrazol-1-yl)thiazol-4(5H)-one]: 4.36 ± 0.65 µM.
As for `CC(C)(C)c1ccc(Oc2ccc(C3=NN(C4=NC(=O)CS4)C(c4ccc(O)c(O)c4)C3)cc2)cc1` (stereo not drawn) [Compound 4m, 2-(3-(4-(4-(tert-butyl)phenoxy)phenyl)-5-(3,4-dihydroxyphenyl)-4,5-dihydro-1H-pyrazol-1-yl)thiazol-4(5H)-one], the IC50 in data set [1] was 4.94 ± 0.79 µM.
`O=C1CSC(N2N=C(c3ccc(Br)cc3)CC2c2ccc(O)c(O)c2)=N1` (stereo not drawn) [Compound 4n, 2-(3-(4-bromophenyl)-5-(3,4-dihydroxyphenyl)-4,5-dihydro-1H-pyrazol-1-yl)thiazol-4(5H)-one]: the half-inhibitory concentration (IC50) in data set [1] was determined as 18.5 ± 2.32 µM.
For the compound `O=c1[nH]cc(F)c(=O)[nH]1` [Compound 5-FU, 5-fluorouracil, reference compound], the “Effect on body weight of tumor-bearing mice” value in data set [2] (4o 25, 50 mg/kg or 5-FU 25 mg/kg) is listed as “showed a decrease”. The compound also returned a Tumor inhibition rate in data set [2] (5-FU 25 mg/kg, positive drug) of 54.8%.
In the case of `NC(=O)C(c1ccccc1)S(=O)(=O)O` (stereo not drawn) [Sulfophenyl acetic amide], in data set [3], the half-inhibitory concentration (IC50) is 1.5 µM.
Turning to Tautomycetin, the IC50 in data set [3] was 2.9 µM.

The term IC50 denotes the concentration that inhibits the measured activity by half.
